Results taken from BindingDB's records for doi:10.1021/jm100478y (University of North Carolina at Chapel Hill, 2010).

Molecular target: T1, Histone-lysine N-methyltransferase EHMT2 (Homo sapiens, UniProt Q96KQ7)
T1 sequence (Q96KQ7 whole entry): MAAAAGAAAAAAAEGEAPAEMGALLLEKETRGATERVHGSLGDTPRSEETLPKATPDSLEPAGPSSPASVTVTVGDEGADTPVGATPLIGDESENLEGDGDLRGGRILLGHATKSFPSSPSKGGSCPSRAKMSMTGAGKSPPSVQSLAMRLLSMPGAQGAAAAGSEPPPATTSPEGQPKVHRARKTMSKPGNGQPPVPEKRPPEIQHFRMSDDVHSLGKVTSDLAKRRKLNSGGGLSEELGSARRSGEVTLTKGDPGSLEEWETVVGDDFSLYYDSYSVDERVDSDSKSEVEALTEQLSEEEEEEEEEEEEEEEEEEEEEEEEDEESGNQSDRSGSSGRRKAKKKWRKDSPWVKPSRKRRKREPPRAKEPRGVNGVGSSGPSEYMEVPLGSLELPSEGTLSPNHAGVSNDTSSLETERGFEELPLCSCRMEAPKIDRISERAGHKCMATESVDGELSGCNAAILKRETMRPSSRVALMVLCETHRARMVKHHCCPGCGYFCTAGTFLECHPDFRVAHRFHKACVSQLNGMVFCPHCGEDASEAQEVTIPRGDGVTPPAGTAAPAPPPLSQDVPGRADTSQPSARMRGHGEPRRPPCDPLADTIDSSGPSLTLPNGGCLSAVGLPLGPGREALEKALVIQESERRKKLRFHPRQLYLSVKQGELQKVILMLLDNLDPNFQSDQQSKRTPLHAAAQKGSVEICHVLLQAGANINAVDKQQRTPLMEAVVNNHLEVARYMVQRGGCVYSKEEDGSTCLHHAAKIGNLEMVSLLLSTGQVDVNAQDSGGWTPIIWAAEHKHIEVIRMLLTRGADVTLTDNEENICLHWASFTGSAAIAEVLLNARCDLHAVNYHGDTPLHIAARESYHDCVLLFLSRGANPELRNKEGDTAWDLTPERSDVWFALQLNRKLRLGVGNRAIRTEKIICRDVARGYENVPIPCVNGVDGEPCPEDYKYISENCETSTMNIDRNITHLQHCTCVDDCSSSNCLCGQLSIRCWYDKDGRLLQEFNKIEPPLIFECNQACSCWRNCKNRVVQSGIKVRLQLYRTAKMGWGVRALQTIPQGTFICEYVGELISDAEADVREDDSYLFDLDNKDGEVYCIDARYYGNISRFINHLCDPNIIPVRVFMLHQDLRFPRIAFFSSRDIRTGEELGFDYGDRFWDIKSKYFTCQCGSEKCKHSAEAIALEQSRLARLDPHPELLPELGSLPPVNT
Test: Inhibition of methyl transferase activity of G9a assessed as inhibition of H3K9 methylation by chemiluminescence based oxygen tunneling assay

Row | IC50 [µM] | SMILES
1 | > 10 | COc1cc2nc(N3CCCN(C)CC3)nc(NC3CCNCC3)c2cc1OC [6,7-Dimethoxy-2-(4-methyl-1,4-diazepan-1-yl)-N-(piperidin-4-yl)quinazolin-4-amine]
2 | > 10 | COc1cc2nc(N3CCCN(C)CC3)nc(NC3CCOCC3)c2cc1OC [6,7-dimethoxy-2-(4-methyl-1,4-diazepan-1-yl)-N-(tetrahydro-2H-pyran-4-yl)quinazolin-4-amine]
